Data as given in US11674123B2, “Generating arterial endothelial cell populations” (Wisconsin Alumni Research Foundation, priority 2015, dated 2023).
Entries after “also recorded” stand apart in the source; their conditions may differ.

B1: PDGF-BB: platelet derived growth factor BB (protein, UniProt P01127 82-190, looked up)
Platelet-derived growth …: SLGSLTIAEPAMIAECKTRTEVFEISRRLIDRTNANFLVWPPCVEVQRCSGCCNNRNVQCRPTQVQLRPVQVRKIEIVRKKPIFKKATVTLEDHLACKCETVAAARPVT
modifications: homodimer
B2: WNT3A: recombinant protein, Wnt signaling factor added to medium (protein, UniProt P56704 19-352, looked up)
Protein Wnt-3a: SYPIWWSLAVGPQYSSLGSQPILCASIPGLVPKQLRFCRNYVEIMPSVAEGIKIGIQECQHQFRGRRWNCTTVHDSLAIFGPVLDKATRESAFVHAIASAGVAFAVTRSCAEGTAAICGCSSRHQGSPGKGWKWGGCSEDIEFGGMVSREFADARENRPDARSAMNRHNNEAGRQAIASHMHLKCKCHGLSGSCEVKTCWWSQPDFRAIGDFLKDKYDSASEMVVEKHRESRGWVETLRPRYTYFKVPTERDLVYYEASPNFCEPNPETGSFGTRDRTCNVSSHGIDGCDLLCCGRGHNARAERRREKCRCVFHWCCYVSCQECTRVYDVHTCK

How the values were obtained:
Type in all cases: cell-based, human
[1] = system: CXCR4+CD144+ and DLL4+CD144+ arterial endothelial cells; assay: Flow cytometry of CXCR4/CD144 and DLL4/CD144 on differentiated endothelial cells; details: FIGS. 4C-4F; for CXCR4 and DLL4 (CD144+CXCR4+ and CD144+DLL4+ cells), factor removed from five factors medium: individual removal
Description: FIGS. 4A-4H present flow cytometric analysis of expression of EphrinB2 and Ephrin Type B Receptor 4 reporter constructs (EFNB2-tdTomato and EPHB4-EGFP) on CD31- and CD144-gated endothelial cells obtained after differentiation in various medium, as described. FIG. 4B illustrates the percentage of arterial endothelial cells (AEC) (EFNB2-tdTomato^high/EPHB4-EGFP^low) obtained after differentiation in the various medium conditions of FIG. 4A. Data are represented as mean±SD. […] FIG. 4D illustrates the percentage of CXCR4^+CD144^+ arterial endothelial cells obtained after differentiation in the various medium conditions of FIG. 4C. […] FIG. 4F illustrates the percentage of DLL4^+CD144^+ arterial endothelial cells obtained after differentiation in the various medium conditions of FIG. 4E. 5 μM L-690,330 (a bisphosphonate inhibitor of inositol monophosphatase), and 100 ng/ml PDGF-BB (platelet derived growth factor BB) were used. […] Arterial endothelial cell differentiation and expansion: It took six days for AECs differentiation. From day 0 to day 2, human ES/iPS cells were first differentiated into mesoderm cells as mentioned above. From day 2 to day 6, E5 medium was used and growth factors or small molecules were added as indicated. With the combination of “five factors,” AECs were induced by E5 medium supplemented with 100 ng/ml FGF, 50 ng/ml VEGF, 10 μM SB431542, 5 μM RESV, and 10 μM […] from day 2 to day 6.

[2] = system: EFNB2-tdTomato/EPHB4-EGFP dual reporter cells (H1 ES cells); assay: Arterial endothelial differentiation of EFNB2-tdTomato/EPHB4-EGFP dual reporter cells, flow cytometry; details: for arterial differentiation (EFNB2-tdTomato high/EPHB4-EGFP low cells), factor removed: factor removed from the medium after mesoderm formation, day 2 to day 6, FIGS. 3A-3F; for EFNB2-tdTomato high/EPHB4-EGFP low cells, factor removed from five factors medium: individual removal, FIGS. 4A-4B; for arterial endothelial differentiation of human pluripotent stem cells (conclusion after FACS sorting and RT-qPCR): summary statement; for arterial specification (EFNB2-tdTomato and EPHB4-EGFP expression), factor added singly: added to Control medium (E5+100 ng/ml FGF2+10 μM SB431542): 50 ng/ml VEGF, 5 μM RESV or 50 ng/ml WNT3A, FIG. 11; for arterial endothelial cell differentiation (EFNB2-tdTomato high/EPHB4-EGFP low cells), factor added: added day 2 to day 6 to E5 + 50 ng/ml VEGFA + 10 μM SB431542, 5 μM L690, 5 μg/ml LDL, 100 ng/ml PDGF-BB, FIGS. 3E-3F; for EFNB2-tdTomato high/EPHB4-EGFP low cells / arterial differentiation, factor added to five factors medium: 100 ng/ml PDGF-BB or exogenous WNT3A, FIGS. 4A-4F, FIG. 9
Procedure: (A) Flow cytometric analysis of EFNB2-tdTomato and EPHB4-EGFP expression on CD31 and CD144 gated endothelial cells. EFNB2-tdTomato/EPHB4-EGFP dual reporter cells (hetero knock-in in H1 cells for each gene) were first differentiated into mesoderm cells by E8BAC medium (E8 medium supplemented with BMP4, Activin-A, and CHIR99021). E5 (E8 medium minus FGF2, TGFβ1, and insulin) medium supplemented with 100 ng/ml FGF2, 50 ng/ml VEGFA, and 50 ng/ml BMP4 was used to induce mesoderm cells to differentiate into endothelial cells from day 2 to day 6. Either Insulin (20 μg/ml) or Ly294002 (16 μM, a PI3K inhibitor) was added to the medium as indicated from day 2 to day 6. (B) Statistics of EFNB2-tdTommato^high/EPHB4-EGFP^low cells. […] (C) Western blots showing AKT activity. Protein was harvested at day 3. (D) Flow cytometric analysis of EFNB2-tdTomato and EPHB4-EGFP expression on CD31 and CD144 gated endothelial cells. E5 medium supplemented with 50 ng/ml VEGFA, 50 ng/ml BMP4 or 10 μM SB431542 was used to induce mesoderm cells to differentiate into endothelial cells from day 2 to day 6. (E) Flow cytometric analysis of EFNB2-tdTomato and EPHB4-EGFP expression on CD31 and CD144 gated endothelial cells. ES cells were first differentiated into mesoderm cells as mentioned above. E5 medium supplemented with 50 ng/ml VEGFA and 10 μM SB431542 was used as the base medium induce mesoderm cells to differentiate into endothelial cells from day 2 to day 6. Other factors were added to the base medium as indicated. (F) Statistics of EFNB2-tdTomato^high/EPHB4-EGFP^low cells. […] FIGS. 4A-4H present flow cytometric analysis of expression of EphrinB2 and Ephrin Type B Receptor 4 reporter constructs (EFNB2-tdTomato and EPHB4-EGFP) on CD31- and CD144-gated endothelial cells obtained after differentiation in various medium, as described. FIG. 4B illustrates the percentage of arterial endothelial cells (AEC) (EFNB2-tdTomato^high/EPHB4-EGFP^low) obtained after differentiation in the various medium conditions of FIG. 4A. Data are represented as mean±SD. […] FIG. 4D illustrates the percentage of CXCR4^+CD144^+ arterial endothelial cells obtained after differentiation in the various medium conditions of FIG. 4C. […] FIG. 4F illustrates the percentage of DLL4^+CD144^+ arterial endothelial cells obtained after differentiation in the various medium conditions of FIG. 4E. 5 μM L-690,330 (a bisphosphonate inhibitor of inositol monophosphatase), and 100 ng/ml PDGF-BB (platelet derived growth factor BB) were used. […] FIGS. 11A-11C present arterial endothelial cell differentiation data. (A) Schematic of arterial endothelial cell differentiation protocol. ES cells were first differentiated into mesoderm cells by E8BAC medium (E8 medium supplemented with 5 ng/ml BMP4, 25 ng/ml Activin A, and 1 μM CHIR99021). E5 (E8 medium minus FGF2, TGFβ1, and insulin) medium supplemented with 100 ng/ml FGF2 and 10 μM SB431542 was then used to induce mesoderm cells to differentiate into endothelial cells. (B) Flow cytometric analysis of CD31 and CD34 expression. E5+100 ng/ml FGF2+10 μM SB431542 medium (“Control”) supplemented with 50 ng/ml VEGF, 5 μM RESV (resveratrol, a Notch activator), or 50 ng/ml WNT3A was used to induce mesoderm cells to differentiate into arterial endothelial cells. (C) Flow cytometric analysis of EFNB2-tdTomato and EPHB4-EGFP expression.

AKT = assay: Western blot of AKT activity (pAKT) during differentiation; details: protein harvested at day 3, insulin 20 μg/ml, Ly294002 16 μM, FIG. 3C
Procedure: FIGS. 3A-3F present candidate pathways critical for arteriovenous specification. (A) Flow cytometric analysis of EFNB2-tdTomato and EPHB4-EGFP expression on CD31 and CD144 gated endothelial cells. EFNB2-tdTomato/EPHB4-EGFP dual reporter cells (hetero knock-in in H1 cells for each gene) were first differentiated into mesoderm cells by E8BAC medium (E8 medium supplemented with BMP4, Activin-A, and CHIR99021). E5 (E8 medium minus FGF2, TGFβ1, and insulin) medium supplemented with 100 ng/ml FGF2, 50 ng/ml VEGFA, and 50 ng/ml BMP4 was used to induce mesoderm cells to differentiate into endothelial cells from day 2 to day 6. Either Insulin (20 μg/ml) or Ly294002 (16 μM, a PI3K inhibitor) was added to the medium as indicated from day 2 to day 6. (B) Statistics of EFNB2-tdTommato^high/EPHB4-EGFP^low cells. Data are represented as mean±SD. *: P<0.05, n=5. (C) Western blots showing AKT activity. Protein was harvested at day 3. (D) Flow cytometric analysis of EFNB2-tdTomato and EPHB4-EGFP expression on CD31 and CD144 gated endothelial cells. E5 medium supplemented with 50 ng/ml VEGFA, 50 ng/ml BMP4 or 10 μM SB431542 was used to induce mesoderm cells to differentiate into endothelial cells from day 2 to day 6. (E) Flow cytometric analysis of EFNB2-tdTomato and EPHB4-EGFP expression on CD31 and CD144 gated endothelial cells. ES cells were first differentiated into mesoderm cells as mentioned above. […]

| Molecule | CXCR4 and DLL4 (CD144+CXCR4+ and CD144+DLL4+ cells), factor removed from five factors medium [1] | EFNB2-tdTomato high/EPHB4-EGFP low cells, factor removed from five factors medium [2] | arterial endothelial differentiation of human pluripotent stem cells (conclusion after FACS sorting and RT-qPCR) [2] | arterial endothelial cell differentiation (EFNB2-tdTomato high/EPHB4-EGFP low cells), factor added [2] | further results |
| --- | --- | --- | --- | --- | --- |
| NC(=O)c1ccc(-c2nc(-c3ccc4c(c3)OCO4)c(-c3ccccn3)[nH]2)cc1 [SB431542, reference compound] | decreased | decrease | – | – | arterial differentiation (EFNB2-tdTomato high/EPHB4-EGFP low cells), factor removed [2]: inhibited arterial differentiation |
| TGF-β | – | – | inhibit arterial endothelial differentiation | – | – |
| Oc1ccc(C=Cc2cc(O)cc(O)c2)cc1 [RESV, 3,4′,5-trihydroxystilbene, reference compound] | – | decrease | – | – | arterial specification (EFNB2-tdTomato and EPHB4-EGFP expression), factor added singly [2]: promoted increased arterial specification |
| CC(Oc1ccc(O)cc1)(P(=O)(O)O)P(=O)(O)O [L-690,330, reference compound] | no reduction | fewer | promote arterial endothelial differentiation | increased arterial endothelial cell differentiation | – |
| insulin: insulin, medium component, activates AKT | – | – | inhibit arterial endothelial differentiation | – | arterial differentiation (EFNB2-tdTomato high/EPHB4-EGFP low cells), factor removed [2]: triggered AEC differentiation; Phosphorylated AKT (pAKT) (AKT): increased |
| FGF2: human fibroblast growth factor 2 | decreased | decrease | promote arterial endothelial differentiation | increased arterial endothelial cell differentiation | – |
| B1 | – | – | inhibit arterial endothelial differentiation | inhibited arterial differentiation | CD144+CXCR4+ and CD144+DLL4+ cells, factor added to five factors medium ([1]; 100 ng/ml PDGF-BB): no reduction; EFNB2-tdTomato high/EPHB4-EGFP low cells / arterial differentiation, factor added to five factors medium [2]: fewer |
| B2 | – | – | – | – | EFNB2-tdTomato high/EPHB4-EGFP low cells / arterial differentiation, factor added to five factors medium [2]: did not further increase arterial differentiation; arterial specification (EFNB2-tdTomato and EPHB4-EGFP expression), factor added singly [2]: promoted increased arterial specification; also recorded: promoted arterial differentiation |
